Test results reported in patent US8664276B2, “Stilbene analogs and methods of treating cancer” (University of Kentucky Research Foundation, priority 2011, dated 2014).
“Also recorded” adds a separate entry of the source.

Experiments:
β-catenin = β-catenin localization by immunofluorescence in LS174 cells; assay type: cell-based; conditions: 10 μM, 24 h, versus DMSO
Method: Immunofluorescence. Cells grown on cover glass were fixed by 4% paraformaldehyde for 20 min at room temperature. The cells were permeabilized with PBS containing 0.3% (w/v) Triton X-100 and blocked by 5% normal goat serum in PBS for 30 min. Anti-β-catenin antibody (1:300, Sigma, St. Louis, Mo.) was diluted in blocking solution and incubated with cells overnight. The cells were washed 3 times with PBS and further incubated with Alexa-488-labeled anti-rabbit IgG (1:500) diluted in PBS for 40 min. The cover glasses were washed, mounted on glass slides, viewed and photographed with an Olympus FW1000 confocal microscope. Cells grown on cover glass were treated with fluorescent compounds for 2 h, 6 h, 12 h and 24 h respectively. Treated cells were fixed by 4% paraformaldehyde for 20 min at room temperature. Then cells were washed 3 times with PBS and mounted on glass slides, viewed under the fluorescence of 405 nm-wavelength and photographed with an Olympus FW1000 confocal microscope.
Nevertheless, compound 4s lends itself well to a mechanistic study of the site of action of these compounds. LS174 cells were treated with 10 μM of compound 4s for 2 h, 6 h, 12 h, and 24 h. The cells were fixed and analyzed by confocal fluorescence microscopy. […] The cells were fixed and β-catenin localization analyzed by immunofluorescence. […]

LS174 tumor xenografts = test: LS174 tumor xenograft in nude mice; assay type: in vivo
Method: Tumor xenograft in nude mice. LS174 or HT29 colon cancer cells (2×10^6) were injected subcutaneously into both flanks of 6-8 week C57BL/6J athymic nude mice as described in Zhang et al., Mol Cell Biol 2006, 26, 2055-2064. Compound 4r or 4dd was dissolved in corn oil or PEG400. The mice were treated with 20 mg/kg/day of 4r by ip injection or gavage (50 μl/mouse). Control mice were treated with same volume of corn oil or PEG400. The body weight and tumor growth were analyzed twice weekly for one month. Tumor size was measured using digital caliper. The tumor volume was calculated by the formula: V=½LW^2 (mm^3).
In this example, the effects of the stilbene analogs of the present disclosure on CRC cells growth was analyzed. […] To test the effects of compound 4r on tumor growth in vivo, LS174 cells were injected subcutaneously into the flanks of athymic nude mice, which had been randomized into two groups. One group of mice was treated with compound 4r (20 mg/kg/day) dissolved in corn oil by intraperitoneal (ip) injection. The control mice were treated with the same volume of corn oil (50 μL) by ip injection. The mice were weighted and tumors measured twice weekly.

[1] = tested on: Wnt target genes, Axin2 and c-Myc; test: Western blot of Wnt target proteins in LS174 CRC cells; assay type: cell-based
Method: Western blot. Western blots were performed using the following antibodies: β-catenin (Sigma, C2206), c-Myc (Epitomics, 1472-1), Axin2 (Cell Signaling, 2151), β-Actin (Sigma, A1978), TCF4 (Epitomics, 2114-1) and pygopus2 (Santa Cruz, sc-74878), Cyclin D1 (Cell signaling, 2926).
Cyclin B1 levels were decreased, whereas p21^WAF1/CIP1 levels increased, consistent with the fact that p21^WAF1/CIP1 expression is repressed by c-Myc. β-catenin levels were not affected by resveratrol. Next, the mRNA levels of β-catenin target genes were analyzed using RT-PCR. Expression of survivin, Lgr5, CD44, and c-Myc were decreased in resveratrol-treated cells.
A panel of stilbene analogs was designed and synthesized (FIGS. 2, 3, 5A and 6A). […] However, the solubility of 4d was poor and it was not effective below 10 μM concentrations (data not shown). To improve its solubility and activity, compound 4d was modified with 2′-fluoro 4e, 3′-fluoro 4f and 4′-fluoro 4g substituents (FIG. 5D). Both compounds 4e and 4f had good activity at 10 μM, (E)-4-(2-fluorostyryl)-N,N-dimethylaniline.
Western blot and cell proliferation assay. The activity of fluorinated N,N-dialkylaminostilbenes (FIDAS or FIDAS agents) on Wnt signaling activity in cancer cells were analyzed by Western blot with antibodies against Wnt target genes, such as c-Myc, Axin2. The effects of FlDAS agents on cancer cell growth were analyzed using Cell Viability Analyzer (Beckman Coulter, Vi-Cell XR). These assays have been described previously (see Zhang et al., J. of Med. Chem. 54, 1288-1297 (2011)).

SMILES: CN(C)c1ccc(/C=C/c2c(F)cccc2F)cc1 [4r, (E)-4-(2,6-Difluorostyryl)-N,N-dimethylaniline]
- nuclear β-catenin levels (β-catenin): decreased
- body weight versus control mice (LS174 tumor xenografts; 20 mg/kg/day ip in corn oil, within one month): no significant difference
- growth of tumor xenografts (LS174 tumor xenografts; LS174, 20 mg/kg/day ip in corn oil): significantly inhibited
- repression of Wnt target genes at 10 μM ([1]; 10 μM, CRC cells): repress Wnt target genes; also recorded: reduced the protein levels
- Wnt inhibitory activity in Western blot, qualitative or relative to a comparator ([1]; CRC cells): more active than compound 4e; also recorded: best activity
- protein levels of TCF4 and pygopus2 ([1]; CRC cells): reduced
- inhibition of Wnt target genes at 2.5 μM ([1]; LS174 CRC cells, 2.5 μM): significantly inhibited
